The values that follow come from patent US7326732B2, “EP2 receptor agonists” (Pharmagene Laboratories Limited, priority 2004, dated 2008).

The target in assay [1] is T1, human EP3 receptor (Homo sapiens, UniProt P43115).
T1 construct: expressed in transfected cells
T1 sequence (P43115 1-390): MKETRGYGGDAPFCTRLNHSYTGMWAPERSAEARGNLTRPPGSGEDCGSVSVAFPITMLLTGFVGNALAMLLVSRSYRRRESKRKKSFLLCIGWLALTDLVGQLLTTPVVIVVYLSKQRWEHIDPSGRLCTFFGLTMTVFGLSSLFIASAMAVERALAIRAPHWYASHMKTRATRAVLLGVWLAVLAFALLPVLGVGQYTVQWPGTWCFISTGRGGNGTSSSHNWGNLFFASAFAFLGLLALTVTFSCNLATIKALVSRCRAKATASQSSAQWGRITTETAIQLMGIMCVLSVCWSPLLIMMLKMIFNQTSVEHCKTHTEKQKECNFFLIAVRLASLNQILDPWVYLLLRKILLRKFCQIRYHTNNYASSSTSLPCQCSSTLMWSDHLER
Description: Binding ability to human EP receptors ([3H]PGE2 displacement), EP3. As to conditions: membranes expressing human EP3; [3H]PGE2 2.5 nM; Cheng-Prusoff; read-out: pKi (M) EP3 (converted). The protocol: (§1) Membranes were prepared from cells stably transfected with human EP receptor cDNA. In brief, cells were cultured to confluency, scraped from culture flasks, and centrifuged (800 g, 8 minutes, 4° C.). Cells were twice washed in ice cold homogenisation buffer containing 10 mMTris-HCl, 1 mM EDTA.2Na, 250 mM sucrose, 1 mM PMSF, 0.3 mM indomethacin, pH 7.4, homogenised and re-centrifuged as before. The supernatant was stored on ice and pellets re-homogenised and re-spun. Supernatants were pooled and centrifuged at 40000 g, 10 minutes, 4° C. Resultant membrane pellets were stored at −80° C. until use. For assay, membranes expressing human EP4, EP3, EP2 or EP1 receptors were incubated in Millipore (MHVBN45) plates containing assay buffer, radiolabelled [^3H]PGE2 and 0.1 to 10 000 nM concentrations of compounds. Incubations were performed at suitable temperatures and for suitable times to allow equilibrium to be reached. Non-specific binding was determined in the presence of 10 uM PGE2. Bound and free radiolabel was separated by vacuum manifold filtration using appropriate wash buffers, and bound radiolabel was determined by scintillation counting. Constituents of each of the buffers are included in table 1 below. […] Raven Press, New York, 2nd edition.

The target of assay [2] is T2, human EP2 receptor (Homo sapiens, UniProt P43116).
T2 construct: expressed in transfected cells
T2 sequence (P43116 whole entry): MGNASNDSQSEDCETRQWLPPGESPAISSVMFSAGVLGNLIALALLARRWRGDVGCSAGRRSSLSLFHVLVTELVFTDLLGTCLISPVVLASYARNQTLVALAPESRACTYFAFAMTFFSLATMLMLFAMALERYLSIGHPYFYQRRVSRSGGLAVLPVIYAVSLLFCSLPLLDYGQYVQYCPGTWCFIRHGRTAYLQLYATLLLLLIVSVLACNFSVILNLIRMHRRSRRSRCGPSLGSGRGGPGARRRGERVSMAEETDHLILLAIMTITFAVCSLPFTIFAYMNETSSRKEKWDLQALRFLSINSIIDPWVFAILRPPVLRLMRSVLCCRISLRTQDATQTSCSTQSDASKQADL
Description: Binding ability to human EP receptors ([3H]PGE2 displacement), EP2. As to conditions: membranes expressing human EP2; [3H]PGE2 3 nM; Cheng-Prusoff; read-out: pKi (M) EP2 (converted). The protocol: as §1

In assay [3] the target is T3, human EP4 receptor (Homo sapiens, UniProt P35408).
T3 construct: expressed in transfected cells
T3 sequence (P35408 whole entry): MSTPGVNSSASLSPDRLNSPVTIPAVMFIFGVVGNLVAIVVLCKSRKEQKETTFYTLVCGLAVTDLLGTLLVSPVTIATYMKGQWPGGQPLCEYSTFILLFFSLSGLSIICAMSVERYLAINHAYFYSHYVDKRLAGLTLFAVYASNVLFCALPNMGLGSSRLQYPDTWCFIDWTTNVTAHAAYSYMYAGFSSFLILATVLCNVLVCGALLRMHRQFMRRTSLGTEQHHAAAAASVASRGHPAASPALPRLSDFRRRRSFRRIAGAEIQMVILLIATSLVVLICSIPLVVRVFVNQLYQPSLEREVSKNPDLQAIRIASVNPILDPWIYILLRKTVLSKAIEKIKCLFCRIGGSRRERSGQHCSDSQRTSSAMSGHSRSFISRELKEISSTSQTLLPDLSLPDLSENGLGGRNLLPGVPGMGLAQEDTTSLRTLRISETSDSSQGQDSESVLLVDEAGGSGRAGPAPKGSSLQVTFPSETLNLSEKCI
Description: Binding ability to human EP receptors ([3H]PGE2 displacement), EP4. Particulars: membranes expressing human EP4; [3H]PGE2 1 nM; Cheng-Prusoff; read-out: pKi (M) EP4 (converted). The protocol: as §1

The target of assay [4] is T4, human EP2 prostanoid receptors (Homo sapiens, UniProt P43116).
T4 construct: expressed in transfected cells; host or cells: HEK-293
T4 sequence (P43116 whole entry): as the sequence (P43116 whole entry) above
In words: Agonist activity at recombinant human EP2 prostanoid receptors (cAMP in HEK-293 clones). The format is cell-based. The protocol: Culture media was Minimal essential media (MEM), supplemented with 10% foetal bovine serum, 100 U/ml penicillin, […] streptomycin, 2.5 μg/ml fungizone, 2mM glutamine. Cells were cultured to confluency (3-4 days) prior to use. Culture media was removed, and confluent cells washed three times in MEM. […] Cells were then stimulated by the addition of 25 μl of PGE2 or agonists prepared in assay buffer. In antagonist studies, cells were pre-incubated with compounds for 30 minutes prior to PGE2-mediated stimulation Plates were incubated for 15 min at 37° C., before termination of the reaction by the addition of 25 μl 1M HCl. The plate was then frozen at -20° C. overnight before determination of cAMP concentration. Stimulated cAMP levels were determined by radioligand displacement binding. In brief, plates were thawed rapidly in a waterbath, and the samples neutralised by the addition of 25 μl 1M NaOH. 30 μl was transferred to Millipore plates pre-coated with 0.5% Polyethylenimine (PEI). Samples were diluted by addition of 90 μl cAMP determination buffer (50 mM Tris, 5 mM EDTA, pH 7.0). […] 15 μl of 2 nM (final concentration) [^3H] cAMP, and 15 μl of 3'5'-cAMP protein kinase (8 μg/well final concentration) prepared in cAMP determination buffer containing 0.1% BSA, were added to each well. Plates were incubated on ice for 2 hours, before bound and free radiolabel were separated by vacuum filtration harvesting using the Millipore vacuum manifold, using ice cold water as the termination buffer. The sealing mat was removed from the Millipore plates, and the filters allowed to dry overnight. 50 μl Microscint 0 (Packard Bioscience) was added to each well, and the plate counted using the Micro-Beta Trilux topcount ^3H program. cAMP accumulation was determined from the standard curve, and values calculated in pmoles cAMP/well. Antagonists affinities (pA2 values) were determined assuming a slope of unity and the […]-Schild equation, where pA2=log [concentration ratio-1]-log[antagonist].

As to `Cc1ccc(-c2ccc(C(=O)Nc3cccc(CC(=O)O)c3)o2)cc1` [Compound 22, (3-{[5-(4-Methyl-phenyl)-furan-2-carbonyl]-amino}-phenyl)-acetic acid], the results for the Ki in assay [1], in assay [2] and in assay [3] were above 1e-05 M, below 1e-05 M and above 1e-05 M, respectively.

On to `O=C(O)Cc1cccc(NC(=O)c2ccc(-c3ccccc3C(F)(F)F)o2)c1` [Compound 23, (3-{[5-(2-Trifluoromethyl-phenyl)-furan-2-carbonyl]-amino}-phenyl)-acetic acid], for which the Ki in assay [1] was above 1e-05 M; in assay [2] it was below 1e-05 M; in assay [3], above 1e-05 M.

`O=C(O)Cc1cccc(NC(=O)c2ccc(-c3cccc(C(F)(F)F)c3)o2)c1` [Compound 24, (3-{[5-(3-Trifluoromethyl-phenyl)-furan-2-carbonyl]-amino}-phenyl)-acetic acid]: the Ki in assay [1] was above 1e-05 M; in assay [2] it was below 1e-06 M; in assay [3], above 1e-05 M.

Turning to `O=C(O)Cc1cccc(NC(=O)c2ccc(-c3ccc(Cl)cc3Cl)o2)c1` [Compound 25, (3-{[5-(2,4-Dichloro-phenyl)-furan-2-carbonyl]-amino}-phenyl)-acetic acid], the Ki in assay [1] is above 1e-05 M; in assay [2] it was below 1e-05 M; in assay [3], above 1e-05 M.

In the case of `Cc1ccccc1-c1ccc(C(=O)Nc2cccc(CC(=O)O)c2)o1` [Compound 28, (3-{[5-(2-Methyl-phenyl)-furan-2-carbonyl]-amino}-phenyl)-acetic acid], the Ki in assay [1] was above 1e-05 M; in assay [2], below 1e-06 M; in assay [3], above 1e-05 M.

As for `O=C(O)Cc1cccc(NC(=O)c2ccc(-c3cccc(OC(F)(F)F)c3)o2)c1` [Compound 32, (3-{[5-(3-Trifluoromethoxy-phenyl)-furan-2-carbonyl]-amino}-phenyl)-acetic acid], the results for the Ki in assay [1], in assay [2] and in assay [3] were above 1e-05 M, below 1e-06 M and below 1e-05 M, respectively.

With `O=C(O)Cc1cccc(NC(=O)c2ccc(-c3ccc(OC(F)(F)F)cc3)o2)c1` [Compound 33, (3-{[5-(4-Trifluoromethoxy-phenyl)-furan-2-carbonyl]-amino}-phenyl)-acetic acid], the Ki in assay [1] is above 1e-05 M; in assay [2] it was below 1e-05 M; in assay [3], above 1e-05 M.

`CC(C)c1ccc(-c2ccc(C(=O)Nc3cccc(CC(=O)O)c3)o2)cc1` [Compound 35, (3-{[5-(4-Isopropyl-phenyl)-furan-2-carbonyl]-amino}-phenyl)-acetic acid]: the Ki was above 1e-05 M in assay [1], below 1e-05 M in assay [2] and above 1e-05 M in assay [3].

Consider `O=C(O)Cc1cccc(NC(=O)c2ccc(-c3ccco3)o2)c1` [Compound 38, {3-[([2,2′]Bifuranyl-5-carbonyl)-amino]-phenyl}-acetic acid], for which the Ki in assay [1] was above 1e-05 M; in assay [2] it was below 1e-05 M; in assay [3] it was above 1e-05 M.

For `O=C(O)Cc1cccc(NC(=O)c2ccc(-c3ccccc3)s2)c1` [Compound 43, {3-[(5-Phenyl-thiophene-2-carbonyl)-amino]-phenyl}-acetic acid], the Ki is above 1e-05 M in assay [1], below 1e-05 M in assay [2] and above 1e-05 M in assay [3].

For `O=C(O)Cc1cccc(NC(=O)c2ccc(F)c(-c3ccccc3)c2)c1` [Compound 46, {3-[(6-Fluoro-biphenyl-3-carbonyl)-amino]-phenyl}-acetic acid], the results for the Ki in assay [1], in assay [2] and in assay [3] were above 1e-05 M, below 1e-05 M and above 1e-05 M, respectively.

Turning to `Cc1cc(-c2ccccc2)ccc1C(=O)Nc1cccc(CC(=O)O)c1` [Compound 47, {3-[(3-Methyl-biphenyl-4-carbonyl)-amino]-phenyl}-acetic acid], the Ki in assay [1] was above 1e-05 M; in assay [2], below 1e-06 M; in assay [3], above 1e-05 M.

Take `O=C(O)Cc1cccc(NC(=O)c2ccc(-c3ccccc3)cc2Cl)c1` [Compound 48, {3-[(3-Chloro-biphenyl-4-carbonyl)-amino]-phenyl}-acetic acid]: the Ki in assay [1] is above 1e-05 M; in assay [2] it was below 1e-05 M; in assay [3], above 1e-05 M.

On to `Cc1cc(C(=O)Nc2cccc(CC(=O)O)c2)sc1-c1ccccc1` [Compound 50, {3-[(4-Methyl-5-phenyl-thiophene-2-carbonyl)-amino]-phenyl}-acetic acid], for which the Ki in assay [1] is above 1e-05 M; in assay [2], below 1e-05 M; in assay [3], above 1e-05 M.

For the molecule `O=C(O)Cc1cccc(NC(=O)c2cnc(-c3ccccc3)[nH]2)c1` [Compound 53, {3-[(2-Phenyl-1H-imidazole-5-carbonyl)-amino]-phenyl}-acetic acid], the Ki was above 1e-05 M in assay [1], below 1e-05 M in assay [2] and above 1e-05 M in assay [3].

Turning to `O=C(O)c1cc2cc(NC(=O)c3ccc(-c4ccccc4)o3)ccc2[nH]1` [Compound 59, 5-[(5-Phenyl-furan-2-carbonyl)-amino]-1H-indole-2-carboxylic acid], the Ki was above 1e-05 M in assay [1], below 1e-05 M in assay [2] and above 1e-05 M in assay [3].

Turning to `O=C(O)c1ccc2cc(NC(=O)c3ccc(-c4ccccc4)o3)ccc2c1` [Compound 63, 6-[(5-Phenyl-furan-2-carbonyl)-amino]-naphthalene-2-carboxylic acid], the results for the Ki in assay [1], in assay [2] and in assay [3] were above 1e-05 M, below 1e-05 M and above 1e-05 M, respectively.

For the molecule `NC(=O)Cc1cccc(NC(=O)c2ccc(-c3ccccc3)o2)c1` [Compound 73, 5-Phenyl-furan-2-carboxylic acid (3-carbamoylmethyl-phenyl)-amide], the Ki in assay [1] was above 1e-05 M; in assay [2] it was below 1e-05 M; in assay [3], above 1e-05 M.

For the molecule `O=C(Nc1cccc(Cc2nnn[nH]2)c1)c1ccc(-c2ccccc2)o1` [Compound 75, 5-Phenyl-furan-2-carboxylic acid [3-(1H-tetrazol-5-ylmethyl)-phenyl]-amide], the figures for the Ki in assay [1], in assay [2] and in assay [3] were above 1e-05 M, below 1e-07 M and above 1e-05 M, respectively.

Consider `O=C(Nc1cccc(Cc2nnn[nH]2)c1)c1ccc(-c2cccc(F)c2)o1` [Compound 86, 5-(3-Fluoro-phenyl)-furan-2-carboxylic acid [3-(1H-tetrazol-5-ylmethyl)-phenyl]-amide], for which the Ki in assay [2] was below 1e-07 M; in assay [3], above 1e-05 M. The EC50 in assay [4] (HEK-293 stably transfected with human EP2, cAMP accumulation, read-out: pEC50 EP2 (converted)) is below 0.1 µM. Also, the “activity (EP2 part)” value in assay [4] (functional classification at EP2) was “EP2 Agonist”.

Take `O=C(O)c1cc2cc(NC(=O)c3ccc(-c4ccccc4)o3)ccc2o1` [Compound 96, 5-[(5-Phenyl-furan-2-carbonyl)-amino]-benzofuran-2-carboxylic acid]: the figures for the Ki in assay [1], in assay [2] and in assay [3] were above 1e-05 M, below 1e-06 M and above 1e-05 M, respectively.

`O=C(O)/C=C/c1cccc(NC(=O)c2ccc(-c3cc(C(F)(F)F)cc(C(F)(F)F)c3)o2)c1` [Compound 102, 3-(3-{[5-(3,5-Bis-trifluoromethyl-phenyl)-furan-2-carbonyl]-amino}phenyl)-acrylic acid]: the values for the Ki in assay [1], in assay [2] and in assay [3] were above 1e-05 M, below 1e-07 M and above 1e-05 M, respectively.
